Results reported in paper PMC4988470, “Identification of the putative binding pocket of valerenic acid on GABAA receptors using docking studies and site‐directed mutagenesis” (British Journal of Pharmacology, 2015).

Assays:
[1] = molecular target: α1I227Aβ3γ2S GABAA receptor (Rattus norvegicus, UniProt P62813+P63079, I254A); experiment: I GABA enhancement by VA, two-microelectrode voltage clamp in Xenopus oocytes; format: cell-based
Excerpt: (§1) […]. […] Concentration‐response curves were generated, and the data were fitted by non‐linear regression analysis using ORIGIN software (OriginLab Corporation, Northampton, MA, USA). Data were fitted to the Hill equation: y=min+max−min*x^n/k^nH+x^nH k corresponds to the EC50 value; x‐values are logs of concentration, and n H is the Hill coefficient. Each data point represents the mean ± SEM from ≥3 oocytes and two oocyte batches.
(§2) Follicle membranes covering oocytes were enzymatically digested with 2 mg·mL^−1 collagenase (type 1A). Mutations β3T262A, β3T262S, β3N265S, β3T266A, β3R269A, β3M286A, β3M286W and β3F289S in the β3‐subunit and α1I227A, α1L231A, α1M235A, α1M235W and α1L268A in the α1 subunit were introduced by site‐directed mutagenesis using the QuikChange mutagenesis kit (Agilent Technologies, Vienna, Austria). The coding regions of plasmids were sequenced before experimental use. After cDNA linearization, capped cRNA transcripts were produced using the mMESSAGE mMACHINE® T7 transcription kit (Life Technologies). Capped transcripts were polyadenylated using yeast poly(A)polymerase, diluted in nuclease‐free water and stored before injection at −80°C.
(§3) One day after isolation, the oocytes were injected with about 10–50 nL of nuclease‐free water containing the different rat cRNAs (100–2000 ng·μL^−1 per subunit). For expression of wild‐type α1β3γ2S and mutant receptors, cRNAs were mixed in a ratio of 1:1:10 (Boileau et al., 2002). Electrophysiological experiments were performed using the two‐microelectrode voltage clamp technique at a holding potential of −70 mV making use of a TURBO TEC 01C amplifier (NPI Electronic, Tamm, Germany) and an Axon Digidata 1322A interface (Molecular Devices, Sunnyvale, CA, USA). Data acquisition was carried out using PCLAMP v.9.2 (Molecular Devices, Sunnyvale, CA). The bath solution contained 90 mM NaCl, 1 mM KCl, 1 mM MgCl2, 1 mM CaCl2 and 5 mM HEPES (adjusted to pH 7.4 using 1 M NaOH). Microelectrodes were filled with 2 M KCl and had resistances between 1 and 3 MΩ (Khom et al., 2006).
(§4) Drug or control solutions were applied by means of a TECAN Miniprep 60 permitting automation of the experiments. […] […]. Oocytes with maximal current amplitudes >5 μA were discarded to exclude voltage‐clamp errors (Khom et al., 2006).

[2] = molecular target: α1L231Aβ3γ2S GABAA receptor (Rattus norvegicus, UniProt P62813+P63079, L258A); experiment: as above; format: cell-based
Excerpt: as §1, §2, §3, §4

[3] = molecular target: α1L268Aβ3γ2S GABAA receptor (Rattus norvegicus, UniProt P62813+P63079, L295A); experiment: as above; format: cell-based
Excerpt: as §1, §2, §3, §4

[4] = molecular target: α1M235Aβ3γ2S GABAA receptor (Rattus norvegicus, UniProt P62813+P63079, M262A); experiment: as above; format: cell-based
Excerpt: as §1, §2, §3, §4

[5] = molecular target: α1M235Wβ3γ2S GABAA receptor (Rattus norvegicus, UniProt P62813+P63079, M262W); experiment: as above; format: cell-based
Excerpt: as §1, §2, §3, §4

[6] = molecular target: α1β3F289Sγ2S GABAA receptor (Rattus norvegicus, UniProt P62813+P63079, F314S); experiment: as above; format: cell-based
Excerpt: as §1, §2, §3, §4

[7] = molecular target: α1β3M286Aγ2S GABAA receptor (Rattus norvegicus, UniProt P62813+P63079, M311A); experiment: as above; format: cell-based
Excerpt: as §1, §2, §3, §4

[8] = molecular target: α1β3M286Wγ2S GABAA receptor (Rattus norvegicus, UniProt P62813+P63079, M311W); experiment: as above; format: cell-based
Excerpt: as §1, §2, §3, §4

[9] = molecular target: α1β3N265Sγ2S GABAA receptor (Rattus norvegicus, UniProt P62813+P63079, N290S); experiment: as above; format: cell-based
Excerpt: as §1, §2, §3, §4

[10] = molecular target: α1β3R269Aγ2S GABAA receptor (Rattus norvegicus, UniProt P62813+P63079, R294A); experiment: as above; format: cell-based
Excerpt: as §1, §2, §3, §4

[11] = molecular target: α1β3T262Aγ2S GABAA receptor (Rattus norvegicus, UniProt P62813+P63079, T287A); experiment: as above; format: cell-based
Excerpt: as §1, §2, §3, §4

[12] = molecular target: α1β3T262Sγ2S GABAA receptor (Rattus norvegicus, UniProt P62813+P63079, T287S); experiment: as above; format: cell-based
Excerpt: as §1, §2, §3, §4

[13] = molecular target: α1β3T266Aγ2S GABAA receptor (Rattus norvegicus, UniProt P62813+P63079, T291A); experiment: as above; format: cell-based
Excerpt: as §1, §2, §3, §4

α1β3γ2S GABAA receptor = α1β3γ2S GABAA receptor (Rattus norvegicus, UniProt P62813+P63079); experiment: as above; format: cell-based
Excerpt: as §1, §2, §3, §4

GABAA receptors = test system: GABAA receptors; design: method as in Khom et al., 2007; conditions: high concentrations; ref Khom et al., 2007; cited from earlier work
β1‐containing channels = test system: β1‐containing channels; design: method as in Khom et al., 2007; conditions: ref Khom et al., 2007; cited from earlier work
[14] = read-out: Emax of I GABA enhancement

Sequence of α1L231Aβ3γ2S GABAA receptor (P62813 28-455 L258A): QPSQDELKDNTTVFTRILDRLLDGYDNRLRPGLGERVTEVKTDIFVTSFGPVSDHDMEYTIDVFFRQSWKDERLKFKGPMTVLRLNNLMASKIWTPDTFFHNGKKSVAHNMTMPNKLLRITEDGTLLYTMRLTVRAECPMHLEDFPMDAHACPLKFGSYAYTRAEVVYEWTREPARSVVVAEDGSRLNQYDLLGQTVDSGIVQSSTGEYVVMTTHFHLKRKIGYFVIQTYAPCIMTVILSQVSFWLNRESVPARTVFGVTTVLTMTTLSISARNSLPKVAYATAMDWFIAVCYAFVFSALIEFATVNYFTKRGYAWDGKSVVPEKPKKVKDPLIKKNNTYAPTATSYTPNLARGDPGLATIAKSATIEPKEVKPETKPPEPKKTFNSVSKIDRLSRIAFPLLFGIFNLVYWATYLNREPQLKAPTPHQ
Sequence of α1L231Aβ3γ2S GABAA receptor (P63079 26-473): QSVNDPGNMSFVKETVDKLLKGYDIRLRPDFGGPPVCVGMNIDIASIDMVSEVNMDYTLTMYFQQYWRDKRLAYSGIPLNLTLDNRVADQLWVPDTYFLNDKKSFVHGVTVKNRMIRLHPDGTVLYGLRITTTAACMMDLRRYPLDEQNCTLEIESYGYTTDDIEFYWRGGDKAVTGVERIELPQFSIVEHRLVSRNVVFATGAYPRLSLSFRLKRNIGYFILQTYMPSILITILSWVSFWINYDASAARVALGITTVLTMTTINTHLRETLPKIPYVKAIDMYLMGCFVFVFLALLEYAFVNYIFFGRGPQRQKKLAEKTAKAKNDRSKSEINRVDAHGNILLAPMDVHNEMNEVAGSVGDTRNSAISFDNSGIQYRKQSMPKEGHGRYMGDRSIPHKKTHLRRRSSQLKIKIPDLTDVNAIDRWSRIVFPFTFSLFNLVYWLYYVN
Sequence of α1L231Aβ3γ2S GABAA receptor (P18508 39-466 partner): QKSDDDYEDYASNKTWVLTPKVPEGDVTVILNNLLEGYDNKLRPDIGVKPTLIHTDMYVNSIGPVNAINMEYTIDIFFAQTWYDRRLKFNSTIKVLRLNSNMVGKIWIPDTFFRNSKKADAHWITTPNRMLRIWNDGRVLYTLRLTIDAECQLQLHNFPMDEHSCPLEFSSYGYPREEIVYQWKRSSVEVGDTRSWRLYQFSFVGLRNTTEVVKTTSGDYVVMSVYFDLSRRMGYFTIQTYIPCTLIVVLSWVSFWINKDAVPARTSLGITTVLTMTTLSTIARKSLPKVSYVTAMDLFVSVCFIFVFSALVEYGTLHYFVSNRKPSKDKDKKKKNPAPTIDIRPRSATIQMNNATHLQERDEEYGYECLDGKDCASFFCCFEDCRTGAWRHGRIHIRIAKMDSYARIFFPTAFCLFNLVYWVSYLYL
Sequence of α1M235Aβ3γ2S GABAA receptor (P62813 28-455 M262A): as the sequence (P62813 28-455 L258A) above, with A231L, M235A counted along it
Sequence of α1M235Aβ3γ2S GABAA receptor (P63079 26-473): as the sequence (P63079 26-473) above
Sequence of α1M235Aβ3γ2S GABAA receptor (P18508 39-466 partner): as the sequence (P18508 39-466 partner) above
Sequence of α1I227Aβ3γ2S GABAA receptor (P62813 28-455 I254A): as the sequence (P62813 28-455 L258A) above, with I227A, A231L counted along it
Sequence of α1I227Aβ3γ2S GABAA receptor (P63079 26-473): as the sequence (P63079 26-473) above
Sequence of α1I227Aβ3γ2S GABAA receptor (P18508 39-466 partner): as the sequence (P18508 39-466 partner) above

CC1=C2[C@H](/C=C(\C)C(=O)O)CC[C@@H](C)[C@H]2CC1 [VA, valerenic acid]
EC50 [1]: 40.8 ± 8.4 µM | Emax [1, 14]: 776 ± 60% | n H (Hill coefficient, I GABA enhancement) ([1]; α1I227Aβ3γ2S, GABA EC3–7, mean ± SEM): 1.13 ± 0.08 | EC50 [2]: 18.8 ± 4.4 µM | Emax [2, 14]: 703 ± 82% | n H (Hill coefficient, I GABA enhancement) ([2]; α1L231Aβ3γ2S, GABA EC3–7, mean ± SEM): 1.37 ± 0.18 | EC50 [3]: 19.9 ± 5.6 µM | Emax [3, 14]: 582 ± 80% | n H (Hill coefficient, I GABA enhancement) ([3]; α1L268Aβ3γ2S, GABA EC3–7, mean ± SEM): 1.06 ± 0.13 | EC50 [4]: 21.1 ± 2.8 µM | Emax [4, 14]: 546 ± 28% | n H (Hill coefficient, I GABA enhancement) ([4]; α1M235Aβ3γ2S, GABA EC3–7, mean ± SEM): 1.19 ± 0.08 | EC50 [5]: 24.3 ± 7.7 µM | Emax [5, 14]: 193 ± 16% | n H (Hill coefficient, I GABA enhancement) ([5]; α1M235Wβ3γ2S, GABA EC3–7, mean ± SEM): 1.37 ± 0.34 | EC50 [6]: 181 ± 21.6 µM | Emax [6, 14]: 222 ± 12% | rightward shift of VA's potency versus wild type ([6]; α1β3F289Sγ2S versus α1β3γ2S): ninefold | n H (Hill coefficient, I GABA enhancement) ([6]; α1β3F289Sγ2S, GABA EC3–7, mean ± SEM): 1.20 ± 0.07 | EC50 [7]: 60.1 ± 18.5 µM | Emax [7, 14]: 283 ± 52% | n H (Hill coefficient, I GABA enhancement) ([7]; α1β3M286Aγ2S, GABA EC3–7, mean ± SEM): 1.47 ± 0.21 | Emax [8, 14]: 67 ± 35% | modulatory effects on I GABA (in words) ([8]; α1β3M286Wγ2S, GABA EC3–7): did not display any significant modulatory effects | EC50 [9]: 143 ± 67.5 µM | Emax [9, 14]: 134 ± 32% | reduction of efficacy of IGABA enhancement versus wild type ([9]; α1β3N265Sγ2S versus α1β3γ2S): approximately fivefold reduced | reduction of potency of IGABA enhancement versus wild type ([9]; α1β3N265Sγ2S versus α1β3γ2S): sevenfold reduction | n H (Hill coefficient, I GABA enhancement) ([9]; α1β3N265Sγ2S, GABA EC3–7, mean ± SEM): 1.33 ± 0.39 | EC50 [10]: 84.1 ± 14.7 µM | Emax [10, 14]: 259 ± 22% | n H (Hill coefficient, I GABA enhancement) ([10]; α1β3R269Aγ2S, GABA EC3–7, mean ± SEM): 1.63 ± 0.19 | reduction of efficacy of I GABA enhancement versus wild type ([10]; β3R269 mutated to alanine versus wild type): approximately 50% | EC50 [11]: 2.5 ± 0.8 µM | Emax [11, 14]: 573 ± 96% | n H (Hill coefficient, I GABA enhancement) ([11]; α1β3T262Aγ2S, GABA EC3–7, mean ± SEM): 1.00 ± 0.16 | EC50 [12]: 3.4 ± 0.7 µM | Emax [12, 14]: 578 ± 42% | n H (Hill coefficient, I GABA enhancement) ([12]; α1β3T262Sγ2S, GABA EC3–7, mean ± SEM): 0.85 ± 0.15 | EC50 [13]: 7.5 ± 1.5 µM | Emax [13, 14]: 666 ± 55% | n H (Hill coefficient, I GABA enhancement) ([13]; α1β3T266Aγ2S, GABA EC3–7, mean ± SEM): 1.26 ± 0.1 | EC50 (α1β3γ2S GABAA receptor): 20.2 ± 5.2 µM | Emax (α1β3γ2S GABAA receptor; [14]): 632 ± 88% | n H (Hill coefficient, I GABA enhancement) (α1β3γ2S GABAA receptor; α1β3γ2S, GABA EC3–7, mean ± SEM): 1.50 ± 0.29 | concentration at which VA directly activates GABAA receptors (GABAA receptors): ≥ 30 µM | concentration at which VA inhibits GABAA receptors (GABAA receptors): ≥ 100 µM | effects on β1‐containing channels (β1‐containing channels): negligible effects
